The numbers were not newly measured in patent US7906649B2, “Aminocyclohexanes as dipeptidyl peptidase-IV inhibitors for the treatment of diabetes” (Merck Sharp & Dohme Corp., priority 2005, dated 2011), which cites them from elsewhere.

Data set [1] has as its system GRF degradation in plasma.
Data set [2] concerns cardiac allograft survival. The conditions noted are these: rats; survival doubled from day 7.
The test system of another data set is hematopoiesis. Particulars: mouse, cyclophosphamide-induced neutropenia.

On to diprotin A, for which the “degradation of GRF to GRF[3-44] in plasma” value in data set [1] was “prevented”.
Consider `CC(C)N1CCC(c2ccccc2)(c2ccccc2)CC1` [Prodipine, Pro-Pro-diphenyl-phosphonate], for which the cardiac allograft survival in data set [2] is given as 14 day.
`CC(C)[C@H](N)C(=O)N1CCC[C@H]1B(O)O` [Val-Boro-Pro]: the effect on hematopoiesis result with hematopoiesis was “stimulated hematopoiesis”.
